# Results reported in patent US20260022143A1, “Cyclic Peptide Inhibitors of IL-23” (JANSSEN PHARMACEUTICA NV, priority 2022, published 2026).
# Where two headings read alike, the source gives them in different places. Positions of bridges follow the written chain, without caps; N, C: chain ends. Non-standard residues stand in square brackets, D forms with d. Residues, ends and D or L forms follow the SMILES beside them. ξ: configuration not given here. *: point of attachment. Me3N+(CH2)2O(CH2)2O(CH2)2CO = C[N+](C)(C)CCOCCOCCC(=O)*; CH2CH2OCH2CH2OCH2CH2NMe3+ = C[N+](C)(C)CCOCCOCC*; Trp(7-Me) = Cc1cccc2c(C[C@H](N)C(=O)O)c[nH]c12; 2Nal = N[C@@H](Cc1ccc2ccccc2c1)C(=O)O; Lys(Me) = CNCCCC[C@H](N)C(=O)O; Pen = CC(C)(S)[C@H](N)C(=O)O; ξLys(Me) = CNCCCCC(N)C(=O)O; Thp = NC1(C(=O)O)CCOCC1; Sar = CNCC(=O)O
# Experiments:
# IL-23R = target: T1, IL-23R (Homo sapiens, UniProt Q5VWK5); assay: IL23R Reporter Assay; format: cell-based; details: HEK293 cells containing IL-23R, IL-12RP1 and STAT-inducible firefly luciferase reporter; 10 ng/mL IL-23 (EC90); 5 h at 37° C.; read-out: IL23R Reporter Assay
# T1 construct: host or cells: HEK293
# T1 sequence (Q5VWK5 24-629): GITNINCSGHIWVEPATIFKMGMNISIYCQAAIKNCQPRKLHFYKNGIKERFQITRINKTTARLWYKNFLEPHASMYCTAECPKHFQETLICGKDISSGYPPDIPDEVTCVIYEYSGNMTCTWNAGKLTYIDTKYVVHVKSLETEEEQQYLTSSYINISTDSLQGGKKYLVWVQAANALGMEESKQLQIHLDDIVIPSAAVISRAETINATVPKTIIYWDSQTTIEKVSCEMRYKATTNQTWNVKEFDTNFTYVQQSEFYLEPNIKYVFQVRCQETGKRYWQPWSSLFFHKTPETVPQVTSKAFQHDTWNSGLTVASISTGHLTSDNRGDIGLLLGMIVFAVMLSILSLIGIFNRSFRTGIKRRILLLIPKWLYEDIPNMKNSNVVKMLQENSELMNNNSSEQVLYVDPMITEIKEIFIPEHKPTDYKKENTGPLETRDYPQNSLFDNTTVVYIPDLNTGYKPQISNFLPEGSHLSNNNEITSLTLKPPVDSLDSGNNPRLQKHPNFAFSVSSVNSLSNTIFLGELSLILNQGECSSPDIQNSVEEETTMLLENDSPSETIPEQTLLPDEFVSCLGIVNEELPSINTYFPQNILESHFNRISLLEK
# [1] = Exposed Polar Surface Area (EPSA); format: physicochemical; details: SFC on Chirex 3014 column, sample 1 mM DMSO stock
# Outline: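 SFC retention on a Chirex 3014 (S-valine/(R)-1-(α-naphthyl)ethylamine) column at 35 °C, 4 mL/min, 14 MPa outlet, 5–60% methanol/20 mM ammonium formate gradient in CO2. Retention times converted to EPSA (Å²) via linear calibration with 8 standards; samples from 1 mM DMSO stock, run in duplicate.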
Structure (SMILES),IC50 (IL-23R),EPSA ([1]; read-out: EPSA),EPSA [1]
"CC(=O)NC(COCCOCC[N+](C)(C)C)C(=O)N[C@@H]1C(=O)N[C@@H](CC(=O)N(C)C)C(=O)N[C@@H]([C@@H](C)O)C(=O)N[C@@H](Cc2c[nH]c3c(C)cccc23)C(=O)N[C@@H](CCCCN(C)C(C)=O)C(=O)N[C@H](C(=O)N[C@@H](Cc2ccc(OCCn3cc(CCCC[N+](C)(C)C)nn3)cc2)C(=O)N[C@@H](Cc2ccc3ccccc3c2)C(=O)NC2(C(=O)N[C@@H](CCCCN(C)C(C)=O)C(=O)N[C@@H](CC(N)=O)C(=O)N[C@@H](Cc3cccnc3)C(=O)N(C)CC(=O)N(C)C)CCOCC2)C(C)(C)SSC1(C)C (mixture of isomers) [compound 545, MeCO-APEG2Ser(RS)-Pen(3)-N(N(Me)2)-T-7MeW-K(NMeAc)-Pen(3)-Y(OTzlTMA4)-2Nal-THP-K(NMeAc)-N-3Pya-Sar-CON(Me)2]",0.83 nM,154 A^2,–
"CC(=O)N[C@@H]1C(=O)N[C@@H](CC(=O)N(C)C)C(=O)N[C@@H]([C@@H](C)O)C(=O)N[C@@H](Cc2c[nH]c3c(C)cccc23)C(=O)N[C@H](COCCOCC[N+](C)(C)C)C(=O)N[C@H](C(=O)N[C@@H](Cc2ccc(OCCOCCOCC[N+](C)(C)C)cc2)C(=O)N[C@@H](Cc2ccc3ccccc3c2)C(=O)NC2(C(=O)N[C@@H](COCCOCC[N+](C)(C)C)C(=O)N[C@@H](CC(N)=O)C(=O)N[C@@H](Cc3cccnc3)C(=O)N(C)CC(=O)N(C)C)CCOCC2)C(C)(C)SSC1(C)C (relative stereo) [compound 255, MeCO-Pen(3)-N(N(Me)2)-T-7MeW-APEG2Ser(R*)-Pen(3)-APEG3F-2Nal-THP-APEG2Ser(S*)-N-3Pya-Sar-CON(Me)2]",22 nM,141 A^2,–
"CC(=O)N[C@@H]1C(=O)N[C@@H](CC(=O)N(C)C)C(=O)N[C@@H]([C@@H](C)O)C(=O)N[C@@H](Cc2c[nH]c3c(C)cccc23)C(=O)N[C@H](COCCOCC[N+](C)(C)C)C(=O)N[C@H](C(=O)N[C@@H](Cc2ccc(OCCOCCOCC[N+](C)(C)C)cc2)C(=O)N[C@@H](Cc2ccc3ccccc3c2)C(=O)NC2(C(=O)N[C@@H](CCCCN(C)C(C)=O)C(=O)N[C@@H](CC(N)=O)C(=O)N[C@@H](Cc3cccnc3)C(=O)N(C)CC(=O)N(C)C)CCOCC2)C(C)(C)SSC1(C)C (relative stereo) [compound 268, MeCO-Pen(3)-N(N(Me)2)-T-7MeW-APEG2Ser(R*)-Pen(3)-APEG3F-2Nal-THP-K(NMeAc)-N-3Pya-Sar-CON(Me)2]",110 nM,148 A^2,–
"CC(=O)N[C@@H](COCCOCC[N+](C)(C)C)C(=O)N[C@@H]1C(=O)N[C@@H](CC(=O)N(C)C)C(=O)N[C@@H]([C@@H](C)O)C(=O)N[C@@H](Cc2c[nH]c3c(C)cccc23)C(=O)N[C@@H](CCCCN(C)C(C)=O)C(=O)N[C@H](C(=O)N[C@@H](Cc2ccc(OCCOCCOCC[N+](C)(C)C)cc2)C(=O)N[C@@H](Cc2ccc3ccccc3c2)C(=O)NC2(C(=O)N[C@@H](CCCCN(C)C(C)=O)C(=O)N[C@@H](CC(N)=O)C(=O)N[C@@H](Cc3cccnc3)C(=O)N(C)CC(=O)N(C)C)CCOCC2)C(C)(C)SSC1(C)C (relative stereo) [compound 318, MeCO-APEG2Ser(S*)-Pen(3)-N(N(Me)2)-T-7MeW-K(NMeAc)-Pen(3)-APEG3F-2Nal-THP-K(NMeAc)-N-3Pya-Sar-CON(Me)2]",0.89 nM,151 A^2,–
"CC(=O)NC(COCCOCC[N+](C)(C)C)C(=O)N[C@@H]1C(=O)N[C@@H](CC(=O)N(C)C)C(=O)N[C@@H]([C@@H](C)O)C(=O)N[C@@H](Cc2c[nH]c3c(C)cccc23)C(=O)N[C@@H](CCCCN(C)C(C)=O)C(=O)N[C@H](C(=O)N[C@@H](Cc2ccc(OCCOCCOCC[N+](C)(C)C)cc2)C(=O)N[C@@H](Cc2ccc3ccccc3c2)C(=O)NC2(C(=O)N[C@@H](CCCCN(C)C(C)=O)C(=O)N[C@@H](CC(N)=O)C(=O)N[C@@H](Cc3cccnc3)C(=O)N(C)CC(=O)N(C)C)CCOCC2)C(C)(C)SSC1(C)C (relative stereo) [compound 319, MeCO-APEG2Ser(R*)-Pen(3)-N(N(Me)2)-T-7MeW-K(NMeAc)-Pen(3)-APEG3F-2Nal-THP-K(NMeAc)-N-3Pya-Sar-CON(Me)2]",1.8 nM,151 A^2,–
"CC(=O)N(C)CCCC[C@@H]1NC(=O)[C@H](Cc2c[nH]c3c(C)cccc23)NC(=O)[C@H]([C@@H](C)O)NC(=O)[C@H](CC(=O)N(C)C)NC(=O)[C@@H](NC(=O)CCOCCOCC[N+](C)(C)C)C(C)(C)SSC(C)(C)[C@@H](C(=O)N[C@@H](Cc2ccc(OCCN)cc2)C(=O)N[C@@H](Cc2ccc3ccccc3c2)C(=O)NC2(C(=O)N[C@@H](CCN(C)C(C)=O)C(=O)N[C@@H](CC(N)=O)C(=O)N[C@@H](Cc3cccnc3)C(=O)N(C)CC(=O)N(C)C)CCC(F)(F)C2)NC1=O (single isomer, unassigned) [compound 179, cPEG3aCO-Pen(3)-N(N(Me)2)-T-7MeW-K(NMeAc)-Pen(3)-AEF-2Nal-diFCpx-Dab(NMeAc)-N-3Pya-Sar-CON(Me)2]",3 nM,147 A^2,–
"CC(=O)N(C)CCCCC(NC(=O)C1(NC(=O)[C@H](Cc2ccc3ccccc3c2)NC(=O)[C@H](Cc2ccc(OCCOCCOCC[N+](C)(C)C)cc2)NC(=O)[C@H]2NC(=O)[C@H](CCCCN(C)C(C)=O)NC(=O)[C@H](Cc3c[nH]c4c(C)cccc34)NC(=O)[C@H]([C@@H](C)O)NC(=O)[C@H](CC(=O)N(C)C)NC(=O)[C@@H](NC(=O)CCOCCOCC[N+](C)(C)C)C(C)(C)SSC2(C)C)CCOCC1)C(=O)N[C@@H](CC(N)=O)C(=O)N[C@@H](C)C(=O)N(C)CC(=O)N(C)C (stereo partly drawn) [compound 574, cPEG3aCO-Pen(3)-N(N(Me)2)-T-7MeW-K(NMeAc)-Pen(3)-APEG3F-2Nal-THP-K(NMeAc)-N-A-Sar-CON(Me)2] ({Me3N+(CH2)2O(CH2)2O(CH2)2CO}-[Pen]D(NMe2)T[Trp(7-Me)][Lys(Me)](Ac)[Pen]Y(CH2CH2OCH2CH2OCH2CH2NMe3+)[2Nal][Thp][ξLys(Me)](Ac)NA[Sar]-NMe2; disulfide 1-6)",1390 nM,–,–

# The next lines start with the values.
IC50 (IL-23R),EPSA ([1]; read-out: EPSA),EPSA [1],Structure (SMILES)
4.5 nM,185 A^2,–,"CC(=O)NCCCC[C@@H]1NC(=O)[C@H](Cc2c[nH]c3c(C)cccc23)NC(=O)[C@H]([C@@H](C)O)NC(=O)[C@H](CC(N)=O)NC(=O)[C@@H](NC(=O)C(COCCOCC[N+](C)(C)C)NC(C)=O)C(C)(C)SSC(C)(C)[C@@H](C(=O)N[C@@H](Cc2ccc(OCCN)cc2)C(=O)N[C@@H](Cc2ccc3ccccc3c2)C(=O)NC2(C(=O)N[C@@H](CCC(=O)O)C(=O)N[C@@H](CC(N)=O)C(=O)N[C@@H](Cc3cccnc3)C(=O)N(C)CC(N)=O)CCOCC2)NC1=O (mixture of isomers) [compound 553, MeCO-APEG2Ser(RS)-Pen(3)-N-T-7MeW-K(Ac)-Pen(3)-AEF-2Nal-THP-E-N-3Pya-Sar-CONH2]"
3 nM,171 A^2,–,"CC(=O)NCCCC[C@H](NC(=O)C1(NC(=O)[C@H](Cc2ccc3ccccc3c2)NC(=O)[C@H](Cc2ccc(OCCN)cc2)NC(=O)[C@H]2NC(=O)[C@H](CCCCN(C)C(C)=O)NC(=O)[C@H](Cc3c[nH]c4c(C)cccc34)NC(=O)[C@H]([C@@H](C)O)NC(=O)[C@H](CC(N)=O)NC(=O)[C@@H](NC(=O)C(COCCOCC[N+](C)(C)C)NC(C)=O)C(C)(C)SSC2(C)C)CCOCC1)C(=O)N[C@@H](CC(N)=O)C(=O)N[C@@H](Cc1cccnc1)C(=O)N(C)CC(N)=O (mixture of isomers) [compound 554, MeCO-APEG2Ser(RS)-Pen(3)-N-T-7MeW-K(Ac)-Pen(3)-AEF-2Nal-THP-K(Ac)-N-3Pya-Sar-CONH2]"
5.9 nM,163 A^2,–,"CC(=O)NCCCC[C@@H]1NC(=O)[C@H](Cc2c[nH]c3c(C)cccc23)NC(=O)[C@H]([C@@H](C)O)NC(=O)[C@H](CC(N)=O)NC(=O)[C@@H](NC(=O)C(COCCOCC[N+](C)(C)C)NC(C)=O)C(C)(C)SSC(C)(C)[C@@H](C(=O)N[C@@H](Cc2ccc(OCCCCC[N+](C)(C)C)cc2)C(=O)N[C@@H](Cc2ccc3ccccc3c2)C(=O)NC2(C(=O)N[C@@H](CCCCNC(C)=O)C(=O)N[C@@H](CC(N)=O)C(=O)N[C@@H](Cc3cccnc3)C(=O)N(C)CC(N)=O)CCOCC2)NC1=O (mixture of isomers) [compound 556, MeCO-APEG2Ser(RS)-Pen(3)-N-T-7MeW-K(Ac)-Pen(3)-TMAPF-2Nal-THP-K(Ac)-N-3Pya-Sar-CONH2]"
3.7 nM,–,165.96 Å^2,"CC(=O)NCCCC[C@@H]1NC(=O)[C@H](Cc2c[nH]c3c(C)cccc23)NC(=O)[C@H]([C@@H](C)O)NC(=O)[C@H](CC(N)=O)NC(=O)[C@@H](NC(C)=O)C(C)(C)SSC(C)(C)[C@@H](C(=O)N[C@@H](Cc2ccc(OCC3CCC([N+](C)(C)C)CC3)cc2)C(=O)N[C@@H](Cc2ccc3ccccc3c2)C(=O)NC2(C(=O)N[C@@H](CCCCNC(C)=O)C(=O)N[C@@H](CC(N)=O)C(=O)N[C@@H](Cc3cccnc3)C(=O)N(C)CC(N)=O)CCOCC2)NC1=O (single isomer, unassigned) [compound 531, MeCO-Pen(3)-N-T-7MeW-K(Ac)-Pen(3)-ACHMF(R*, S*)-2Nal-THP-K(Ac)-N-3Pya-Sar-CONH2]"
